Experimental data reported in PMC4100786 (Biochemistry, 2014).

Biological target: ISWI (Xenopus laevis, UniProt Q9DF71)
Assay type: binding

Chain of ISWI (Q9DF71 1-1046): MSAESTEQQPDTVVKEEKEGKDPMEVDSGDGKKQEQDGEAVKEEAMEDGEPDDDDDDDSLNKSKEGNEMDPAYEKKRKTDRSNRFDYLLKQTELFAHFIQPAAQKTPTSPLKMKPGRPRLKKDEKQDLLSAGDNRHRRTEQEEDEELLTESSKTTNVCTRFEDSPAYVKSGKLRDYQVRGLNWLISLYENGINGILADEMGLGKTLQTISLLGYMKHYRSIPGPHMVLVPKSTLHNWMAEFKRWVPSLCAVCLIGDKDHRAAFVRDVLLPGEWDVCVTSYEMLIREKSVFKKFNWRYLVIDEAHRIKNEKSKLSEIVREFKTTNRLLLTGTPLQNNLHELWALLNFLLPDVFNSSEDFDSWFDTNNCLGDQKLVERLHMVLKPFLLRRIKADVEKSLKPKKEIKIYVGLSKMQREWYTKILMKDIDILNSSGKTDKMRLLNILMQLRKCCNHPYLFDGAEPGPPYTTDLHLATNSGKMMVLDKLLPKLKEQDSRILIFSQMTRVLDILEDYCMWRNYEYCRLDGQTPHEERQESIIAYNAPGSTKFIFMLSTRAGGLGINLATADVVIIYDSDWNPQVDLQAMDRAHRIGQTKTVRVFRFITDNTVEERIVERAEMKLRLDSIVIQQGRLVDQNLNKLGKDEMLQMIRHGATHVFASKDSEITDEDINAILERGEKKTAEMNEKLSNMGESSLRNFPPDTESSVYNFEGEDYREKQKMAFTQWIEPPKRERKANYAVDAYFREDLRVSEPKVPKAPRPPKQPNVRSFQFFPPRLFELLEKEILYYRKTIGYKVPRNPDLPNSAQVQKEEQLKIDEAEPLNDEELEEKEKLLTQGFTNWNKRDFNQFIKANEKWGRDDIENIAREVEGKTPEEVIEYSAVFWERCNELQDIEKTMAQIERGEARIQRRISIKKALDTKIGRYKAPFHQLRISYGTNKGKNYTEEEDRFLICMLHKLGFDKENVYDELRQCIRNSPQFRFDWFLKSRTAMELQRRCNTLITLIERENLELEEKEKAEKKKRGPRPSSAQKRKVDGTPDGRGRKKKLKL

Nc1ncnc2c1ncn2[C@@H]1O[C@H](CO[P@](=O)(O)O[P@](=O)(O)O[P@@](=O)(O)S)[C@@H](O)[C@H]1O [ATP-γ-S]
Kd: 140 ± 30 µM
